From PubChem BioAssay (NCI)
Several values for one entry are separate records, joined by “and”; a condition that tells them apart may be missing. Equal entries are not always repeated.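 Growth conditions: 96-well plates. Treatment: test compound, 48 hours, 5 concentrations. Analysis: linear interpolation between bracketing concentrations; unreached endpoints set to highest concentration. The concentration for 50% growth inhibition is given as GI50. At the TGI there is no net growth.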

Columns and labels:
Assay in all cases: NCI anticancer screen, dose series, 48 h
RXF-631 renal = test system: RXF-631 renal
MDA-MB-231 breast = test system: MDA-MB-231 breast
RXF 393 renal = test system: RXF 393 renal
SW-620 colon = test system: SW-620 colon
SF-268 CNS = test system: SF-268 CNS
BT-549 breast = test system: BT-549 breast
SK-MEL-5 melanoma = test system: SK-MEL-5 melanoma
OVCAR-8 ovarian = test system: OVCAR-8 ovarian
KM12 colon = test system: KM12 colon
MALME-3M melanoma = test system: MALME-3M melanoma
SNB-75 CNS = test system: SNB-75 CNS
OVCAR-4 ovarian = test system: OVCAR-4 ovarian
LXFL 529 NSCLC = test system: LXFL 529 NSCLC
HCC-2998 colon = test system: HCC-2998 colon
A549 NSCLC = test system: A549 NSCLC
HOP-92 NSCLC = test system: HOP-92 NSCLC
U251 CNS = test system: U251 CNS
SNB-78 CNS = test system: SNB-78 CNS
SK-MEL-28 melanoma = test system: SK-MEL-28 melanoma
SNB-19 CNS = test system: SNB-19 CNS
NCI-H226 lung = test system: NCI-H226 lung
NCI-H23 lung = test system: NCI-H23 lung
TK-10 renal = test system: TK-10 renal
SK-OV-3 ovarian = test system: SK-OV-3 ovarian
HOP-18 NSCLC = test system: HOP-18 NSCLC
SR leukemia = test system: SR leukemia
HCT-116 colon = test system: HCT-116 colon
NCI-H460 lung = test system: NCI-H460 lung
HOP-62 NSCLC = test system: HOP-62 NSCLC
ACHN renal = test system: ACHN renal
NCI-H522 lung = test system: NCI-H522 lung
NCI/ADR-RES ovarian = test system: NCI/ADR-RES ovarian
SK-MEL-2 melanoma = test system: SK-MEL-2 melanoma
MOLT-4 leukemia = test system: MOLT-4 leukemia
DLD-1 colon = test system: DLD-1 colon
CAKI-1 renal = test system: CAKI-1 renal
SF-295 CNS = test system: SF-295 CNS
HS 578T breast = test system: HS 578T breast
SF-539 CNS = test system: SF-539 CNS
UACC-257 melanoma = test system: UACC-257 melanoma
HT29 colon = test system: HT29 colon
DMS 114 small cell lung = test system: DMS 114 small cell lung
HCT-15 colon = test system: HCT-15 colon
COLO 205 colon = test system: COLO 205 colon
M14 melanoma = test system: M14 melanoma
OVCAR-3 ovarian = test system: OVCAR-3 ovarian
K-562 leukemia = test system: K-562 leukemia
DMS 273 small cell lung = test system: DMS 273 small cell lung
UO-31 renal = test system: UO-31 renal
HL-60(TB) leukemia = test system: HL-60(TB) leukemia
LOX IMVI melanoma = test system: LOX IMVI melanoma
MDA-N = test system: MDA-N
IGROV1 ovarian = test system: IGROV1 ovarian
M19-MEL melanoma = test system: M19-MEL melanoma
UACC-62 melanoma = test system: UACC-62 melanoma
A498 renal = test system: A498 renal
RPMI-8226 leukemia = test system: RPMI-8226 leukemia
DU-145 prostate = test system: DU-145 prostate
786-0 renal = test system: 786-0 renal
MDA-MB-435 = test system: MDA-MB-435
SN12C renal = test system: SN12C renal
MCF7 breast = test system: MCF7 breast
KM20L2 colon = test system: KM20L2 colon
PC-3 prostate = test system: PC-3 prostate
OVCAR-5 ovarian = test system: OVCAR-5 ovarian
EKVX NSCLC = test system: EKVX NSCLC

`CCN(CC)CC(O)CNc1ccc(NCC2CO2)c2c1C(=O)c1ccccc1C2=O` (stereo not given) showed a TGI (RXF-631 renal) of 2240 nM, a TGI (MDA-MB-231 breast) of 3010 nM and a TGI (RXF 393 renal) of 953 nM. The GI50 (SW-620 colon) was 71.3 nM, the TGI (SW-620 colon) was 797 nM and the TGI (SF-268 CNS) was 683 nM. The GI50 (BT-549 breast) was 1220 nM, the TGI (BT-549 breast) was 4270 nM and the GI50 (SK-MEL-5 melanoma) was 398 nM. The TGI (SK-MEL-5 melanoma) was 1800 nM, the TGI (OVCAR-8 ovarian) was 1320 nM and the TGI (KM12 colon) was 1740 nM. For the same compound, the TGI (MALME-3M melanoma) was 5440 nM, the TGI (SNB-75 CNS) was 4290 nM and the TGI (OVCAR-4 ovarian) was 3300 nM. The TGI (LXFL 529 NSCLC) was 247 nM, the GI50 (HCC-2998 colon) was 587 nM and the TGI (HCC-2998 colon) was 2770 nM. It also gave a TGI (A549 NSCLC) of 5690 nM, a TGI (HOP-92 NSCLC) of 6390 nM and a GI50 (U251 CNS) of 373 nM. For the same compound, the TGI (U251 CNS) was 19600 nM, the TGI (SNB-78 CNS) was 2600 nM and the GI50 (SK-MEL-28 melanoma) was 631 nM. For the same compound, the TGI (SK-MEL-28 melanoma) was 3500 nM, the TGI (SNB-19 CNS) was 7520 nM and the GI50 (NCI-H226 lung) was 958 nM. It also gave a TGI (NCI-H226 lung) of 3210 nM, a GI50 (NCI-H23 lung) of 260 nM and a TGI (NCI-H23 lung) of 5200 nM. It also gave a TGI (TK-10 renal) of 7150 nM, a TGI (SK-OV-3 ovarian) of 9640 nM and a TGI (HOP-18 NSCLC) of 37000 nM. The GI50 (SR leukemia) was 34.6 nM, the GI50 (HCT-116 colon) was 86.6 nM and the TGI (HCT-116 colon) was 1110 nM. It also gave a GI50 (NCI-H460 lung) of 390 nM, a TGI (NCI-H460 lung) of 3160 nM and a GI50 (HOP-62 NSCLC) of 297 nM. The TGI (HOP-62 NSCLC) was 4020 nM, the GI50 (ACHN renal) was 51.4 nM and the TGI (ACHN renal) was 448 nM and 751 nM. The GI50 (NCI-H522 lung) was 958 nM, the TGI (NCI-H522 lung) was 2410 nM and the TGI (NCI/ADR-RES ovarian) was 815 nM. For the same compound, the TGI (SK-MEL-2 melanoma) was 785 nM and 839 nM, the GI50 (MOLT-4 leukemia) was 5.15 nM and the TGI (MOLT-4 leukemia) was 58.2 nM and 29.2 nM. It also gave a TGI (DLD-1 colon) of 10700 nM, a GI50 (CAKI-1 renal) of 757 nM and a TGI (CAKI-1 renal) of 2590 nM. The TGI (SF-295 CNS) was 4600 nM, the TGI (HS 578T breast) was 24100 nM and the TGI (SF-539 CNS) was 3080 nM. For the same compound, the TGI (UACC-257 melanoma) was 4040 nM, the GI50 (HT29 colon) was 275 nM and the TGI (HT29 colon) was 6870 nM. It also gave a TGI (DMS 114 small cell lung) of 4430 nM, a GI50 (HCT-15 colon) of 417 nM and a TGI (HCT-15 colon) of 6350 nM. The GI50 (COLO 205 colon) was 581 nM, the TGI (COLO 205 colon) was 4380 nM and the TGI (M14 melanoma) was 402 nM and 674 nM. The GI50 (OVCAR-3 ovarian) was 299 nM, the TGI (OVCAR-3 ovarian) was 2690 nM and the GI50 (K-562 leukemia) was 13.5 nM. For the same compound, the TGI (DMS 273 small cell lung) was 1680 nM, the GI50 (UO-31 renal) was 391 nM and the TGI (UO-31 renal) was 3350 nM. For the same compound, the GI50 (HL-60(TB) leukemia) was 2.16 nM, the GI50 (LOX IMVI melanoma) was 4.54 nM and the TGI (LOX IMVI melanoma) was 39.2 nM and 57.6 nM. It also gave a GI50 (MDA-N) of 257 nM, a TGI (MDA-N) of 2310 nM and a GI50 (IGROV1 ovarian) of 657 nM. It also gave a TGI (IGROV1 ovarian) of 5790 nM, a TGI (M19-MEL melanoma) of 577 nM and a GI50 (UACC-62 melanoma) of 426 nM. It also gave a TGI (UACC-62 melanoma) of 2300 nM, a TGI (A498 renal) of 11600 nM and a TGI (RPMI-8226 leukemia) of 5350 nM. The TGI (DU-145 prostate) was 5040 nM, the GI50 (786-0 renal) was 374 nM and the TGI (786-0 renal) was 1150 nM. The GI50 (MDA-MB-435) was 133 nM, the TGI (MDA-MB-435) was 394 nM and the GI50 (SN12C renal) was 177 nM. The TGI (SN12C renal) was 899 nM, the GI50 (MCF7 breast) was 28.4 nM and the TGI (MCF7 breast) was 169 nM. It also gave a TGI (KM20L2 colon) of 8630 nM, a GI50 (PC-3 prostate) of 395 nM and a TGI (PC-3 prostate) of 3060 nM. The TGI (OVCAR-5 ovarian) was 7760 nM and the TGI (EKVX NSCLC) was 4720 nM.
